Data on one molecule can be found in paper PMC9799096, “ASK120067 potently suppresses B-cell or T-cell malignancies in vitro and in vivo by inhibiting BTK and ITK” (Frontiers in Pharmacology, 2022).

The target of test [1] is T1, interleukin-2-inducible T cell kinase (ITK) (Homo sapiens, UniProt Q08881).
T1 sequence (Q08881 1-620): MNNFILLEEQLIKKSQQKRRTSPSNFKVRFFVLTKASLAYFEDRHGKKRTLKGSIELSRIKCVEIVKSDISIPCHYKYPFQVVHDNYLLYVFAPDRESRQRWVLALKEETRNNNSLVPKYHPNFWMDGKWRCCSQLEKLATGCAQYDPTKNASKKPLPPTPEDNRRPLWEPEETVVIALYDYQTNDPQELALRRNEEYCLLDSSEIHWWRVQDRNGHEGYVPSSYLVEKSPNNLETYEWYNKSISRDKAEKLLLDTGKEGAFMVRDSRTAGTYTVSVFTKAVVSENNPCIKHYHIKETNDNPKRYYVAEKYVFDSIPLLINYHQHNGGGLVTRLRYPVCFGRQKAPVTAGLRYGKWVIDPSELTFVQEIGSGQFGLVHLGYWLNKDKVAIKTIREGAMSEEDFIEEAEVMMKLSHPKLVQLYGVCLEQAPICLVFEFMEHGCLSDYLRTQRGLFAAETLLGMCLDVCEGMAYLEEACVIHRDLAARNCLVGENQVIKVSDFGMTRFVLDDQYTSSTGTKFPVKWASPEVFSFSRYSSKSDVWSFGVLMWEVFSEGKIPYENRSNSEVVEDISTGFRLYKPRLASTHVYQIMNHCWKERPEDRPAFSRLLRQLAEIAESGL
Briefly: ELISA kinase activity assay with purchased ITK protein (MilliporeSigma #[…]-660). In kind it is biochemical.

For test [2], the target named is Bruton’s tyrosine kinase (BTK) (Homo sapiens, UniProt Q06187). Put plainly: ELISA kinase activity assay with purchased BTK protein (MilliporeSigma #[…]-552). It is filed as biochemical. Background: An ELISA detects its analyte on a solid surface through an enzyme-linked reagent.
Bruton’s tyrosine kinase (BTK), sequence (Q06187 2-659): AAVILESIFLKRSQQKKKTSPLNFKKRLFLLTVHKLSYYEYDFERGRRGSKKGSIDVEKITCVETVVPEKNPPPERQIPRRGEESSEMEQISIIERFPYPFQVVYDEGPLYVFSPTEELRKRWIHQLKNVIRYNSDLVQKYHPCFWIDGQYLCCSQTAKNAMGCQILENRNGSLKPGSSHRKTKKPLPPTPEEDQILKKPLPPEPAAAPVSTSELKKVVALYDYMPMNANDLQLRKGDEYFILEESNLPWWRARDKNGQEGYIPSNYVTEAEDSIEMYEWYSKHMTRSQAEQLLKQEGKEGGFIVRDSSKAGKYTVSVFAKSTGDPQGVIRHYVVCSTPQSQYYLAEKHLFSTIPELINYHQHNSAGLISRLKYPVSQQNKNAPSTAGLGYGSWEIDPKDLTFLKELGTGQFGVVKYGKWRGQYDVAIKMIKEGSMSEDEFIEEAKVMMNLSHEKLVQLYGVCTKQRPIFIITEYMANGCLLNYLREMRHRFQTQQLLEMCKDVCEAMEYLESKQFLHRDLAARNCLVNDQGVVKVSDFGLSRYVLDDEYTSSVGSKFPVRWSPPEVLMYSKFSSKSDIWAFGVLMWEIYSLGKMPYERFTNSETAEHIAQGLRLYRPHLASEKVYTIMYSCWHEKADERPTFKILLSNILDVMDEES

The IC50 is the point on the concentration scale where inhibition reaches its midpoint. In the case of `C=CC(=O)Nc1cc(Nc2ncc(Cl)c(Nc3ccc4ccccc4c3)n2)c(OC)cc1N(C)CCN(C)C` [ASK120067], the IC50 in test [1] came to 0.4 nM; in test [2] it was 2.1 nM.
